Values joined by “and” are separate entries in the source; they are usually repeats but may differ in a detail not shown here. Equal entries are not always repeated. Numbers after ± are expanded uncertainties.
Legend:
[1] = Liquid, Closed cell (Static) method
[2] = refractive index (Na D-line) (dimensionless); details: 293.15 K; 101.33 kPa; Liquid; Standard Abbe refractometry

| vapor or sublimation pressure ([1]; 343.15 K) | vapor or sublimation pressure ([1]; 363.15 K) [kPa] | vapor or sublimation pressure ([1]; 393.15 K) [kPa] | refractive index [2] | Structure (SMILES) |
| --- | --- | --- | --- | --- |
| 105.47 ± 2.2 kPa | 190.95 ± 2.3 | 400.27 ± 2.5 | 1.3748 ± 0.0007 | CCCCCC [hexane] |
| 0.16 ± 0.21 kPa and 0.15 ± 0.21 kPa | 0.49 ± 0.21 | 2.18 ± 0.21 | 1.4844 ± 0.0007 | O=CN1CCOCC1 [N-formylmorpholine] |
| 40.4 ± 0.31 kPa | 78.59 ± 0.43 | 183.7 ± 2.2 | 1.3877 ± 0.0007 | CCCCCCC [heptane] |

Source: the NIST ThermoML archive (doi:10.1021/je4004417)
